From patent CN104497008A, “取代噁唑烷酮类化合物及其使用方法和用途” (priority 2014, dated 2015)
≈ marks a conversion by molar mass, not a printed value.

Experiment: Solubility test of the compounds
Format: physicochemical
Details: water, 37 ℃, 24 h shaking, 40 rpm, HPLC; read-out: compound solubility
For `NC(=O)N1CCc2cc(N3C[C@H](CNC(=O)c4ccc(Cl)s4)OC3=O)sc2C1` [实施例3, (S)-2-(5-((5-氯噻吩-2-甲酰氨基)甲基)-2-氧代噁唑烷-3-基)-4,5-二氢噻吩并[2,3-c]吡啶-6(7H)-甲酰胺], the solubility at 24 h was 260 µg/mL (≈ 590 µM). For `CN1CCc2cc(N3C[C@H](CNC(=O)c4ccc(Cl)s4)OC3=O)sc2C1` [实施例6], the solubility at 24 h was 220 µg/mL (≈ 534 µM). For `CC(=O)N1CCc2sc(N3C[C@H](CNC(=O)c4ccc(Cl)s4)OC3=O)cc2C1` [实施例2, (S)-N-((3-(5-乙酰基-4,5,6,7-四氢噻吩并[3,2-c]吡啶-2-基)-2-氧代噁唑烷-5-基)甲基)-5-氯噻吩-2-甲酰胺], the solubility at 24 h was 110 µg/mL (≈ 250 µM). Molecule `CC(=O)N1CCc2cc(N3C[C@H](CNC(=O)c4ccc(Cl)s4)OC3=O)sc2C1` [实施例4, (S)-N-((3-(6-乙酰基-4,5,6,7-四氢噻吩并[2,3-c]吡啶-2-基)-2-氧代噁唑烷-5-基)甲基)-5-氯噻吩-2-甲酰胺] has a solubility at 24 h of 130 µg/mL (≈ 295 µM). Molecule `O=C(NC[C@H]1CN(c2sc3ccccc3c2Cl)C(=O)O1)c1ccc(Cl)s1` [实施例7, (S)-5-氯-N-((3-(3-氯苯并[b]噻吩-2-基)-2-氧代噁唑烷-5-基)甲基)噻吩-2-甲酰胺] has a solubility at 24 h of 80 µg/mL (≈ 187 µM). In the case of `NC(=O)N1CCc2sc(N3C[C@H](CNC(=O)c4ccc(Cl)s4)OC3=O)cc2C1` [实施例1, (S)-2-(5-((5-氯噻吩-2-甲酰氨基)甲基)-2-氧代噁唑烷-3-基)-6,7-二氢噻吩并[3,2-c]吡啶-5(4H)-甲酰胺], the solubility at 24 h is reported as 240 µg/mL (≈ 544 µM). Work on `CN1CCc2nc(C(=O)NCC3COC(=O)N3C(=O)Nc3ccc(Cl)cn3)sc2C1` (centres unmarked) [实施例8, N-(5-氯吡啶-2-基)-4-((5-甲基-4,5,6,7-四氢噻唑并[5,4-c]吡啶-2-甲酰氨基)甲基)-2-氧代噁唑烷-3-甲酰胺] yielded a solubility at 24 h of 150 µg/mL (≈ 333 µM). `CN1CCc2nc(N3C[C@H](CNC(=O)c4ccc(Cl)s4)OC3=O)sc2C1` [实施例5, (S)-5-氯-N-((3-(5-甲基-4,5,6,7-四氢噻唑[5,4-c]吡啶-2-基)-2-氧代噁唑烷-5-基)甲基)噻吩-2-甲酰胺] showed a solubility at 24 h of 230 µg/mL (≈ 557 µM).
